# Measurements taken from US20260167623A1 (NIKANG THERAPEUTICS, INC., priority 2022, published 2026).
# Molecular target: T1, CDK2 (Homo sapiens, UniProt P24941)
# T1 construct: High-Throughput Measurement of Cellular Endogenous CDK2; endogenous in cells; host or cells: OVCAR3
# Assay: Inhibition of CDK2: phospho-Rb (S807/811) HTRF measurement in OVCAR3 cells, 24 h
# Format: cell-based
# Conditions: 24 h compound treatment, read-out: pRB_OVCAR3_24h
# In short: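 IC50 came from a four-parameter fit of DMSO-normalized TR-FRET ratios (665/620 nm) reporting phospho-Rb S807/811. Lysates were taken from OVCAR3 cultures treated 24 h with compound (0.3 to 10,000 nM) and incubated 4 h at room temperature with the antibody pair.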
row,SMILES,IC50
1,"Cn1nc(N2CCC(=O)NC2=O)c2ccc(N3C4CCC3CN(CC3CCN(c5cccc(S(=O)(=O)N6CCC(Nc7ncc(Cl)cn7)CC6)c5)CC3)C4)cc21 [Example 104, 1-(6-(3-((1-(3-((4-((5-chloropyrimidin-2-yl)amino)piperidin-1-yl)sulfonyl)phenyl)-piperidin-4-yl)methyl)-3,8-diaza-bicyclo[3.2.1]octan-8-yl)-1-methyl-1H-indazol-3-yl)dihydropyrimidine-2,4(1H,3H)-dione]",> 2500 nM
2,"O=C1CCC(N2Cc3cc(N4CCN(CC5CCN(c6cccc(S(=O)(=O)N7CCC(Nc8ncc(OC(F)F)cn8)CC7)c6)CC5)CC4)c(F)cc3C2=O)C(=O)N1 (stereo not drawn) [Example 106, 3-(5-(4-((1-(3-((4-((5-(difluoromethoxy)-pyrimidin-2-yl)amino)piperidin-1-yl)sulfonyl)phenyl)piperidin-4-yl)methyl)-piperazin-1-yl)-6-fluoro-1-oxoisoindolin-2-yl)piperidine-2,6-dione]",100 to 500 nM
3,"O=C1CCN(c2ccc(N3CCN(CC4CCN(c5cccc(S(=O)(=O)N6CCC(Nc7ncc(Cl)cn7)CC6)c5)CC4)CC3)cc2)C(=O)N1 [Example 109, 1-(4-(4-((1-(3-((4-((5-chloropyrimidin-2-yl)amino)piperidin-1-yl)sulfonyl)phenyl)-piperidin-4-yl)methyl)piperazin-1-yl)phenyl) dihydropyrimidine-2,4(1H,3H)-dione]",100 to 500 nM
4,"Cn1nc(N2CCC(=O)NC2=O)c2cc(F)c(N3CCN(CC4CCN(c5cccc(S(=O)(=O)N6CCC(Nc7ncc(C(F)(F)F)cn7)CC6)c5)CC4)CC3)cc21 [Example 110, 1-(5-fluoro-1-methyl-6-(4-((1-(3-((4-((5-(trifluoromethyl)pyrimidin-2-yl)amino)-piperidin-1 - yl)sulfonyl)phenyl)piperidin-4-yl)methyl)piperazin-1-yl)-1H-indazol-3-yl)dihydropyrimidine-2,4(1H,3H)-dione]",100 to 500 nM
5,"Cn1nc(N2CCC(=O)NC2=O)c2cc(F)c(N3CCN(CC4CCN(c5cccc(S(=O)(=O)N6CCC(Nc7ncc(Cl)cn7)CC6)c5)CC4)CC3)cc21 [Example 111, 1-(6-(4-((1-(3-((4-((5-chloropyrimidin-2-yl)amino)piperidin-1-yl)sulfonyl)phenyl)-piperidin-4-yl)methyl)piperazin-1-yl)-5-fluoro-1-methyl-1H-indazol-3-yl)dihydropyrimidine-2,4(1H,3H)-dione]",500 to 2500 nM
6,"Cn1nc(N2CCC(=O)NC2=O)c2ccc(C3CCN(CC4CCN(c5cccc(S(=O)(=O)N6CCC(Nc7ncc(OC(F)F)cn7)CC6)c5)CC4)CC3)cc21 [Example 112, 1-(6-(1-((1-(3-((4-((5-(difluoromethoxy)-pyrimidin-2-yl)amino)piperidin-1-yl)sulfonyl)phenyl)piperidin-4-yl)methyl)piperidin-4-yl)-1-methyl-1H-indazol-3-yl)dihydropyrimidine-2,4(1H,3H)-dione]",1 to 100 nM
7,"O=C1CCN(c2ccc(N3CCN(CC4CCN(c5cccc(S(=O)(=O)N6CCC(Nc7ncc(C(F)(F)F)cn7)CC6)c5)CC4)CC3)cc2)C(=O)N1 [Example 113, 1-(4-(4-((1-(3-((4-((5-(trifluoromethyl)-pyrimidin-2-yl)amino)piperidin-1-yl)sulfonyl)phenyl)piperidin-4-yl)methyl)piperazin-1-yl)phenyl)-dihydropyrimidine-2,4(1H,3H)-dione]",100 to 500 nM
8,"Cn1nc(N2CCC(=O)NC2=O)c2ccc(N3CC4CCC(C3)N4CC3CCN(c4cccc(S(=O)(=O)N5CCC(Nc6ncc(Cl)cn6)CC5)c4)CC3)cc21 [Example 114, 1-(6-(8-((1-(3-((4-((5-chloropyrimidin-2-yl)amino)piperidin-1-yl)sulfonyl)phenyl)-piperidin-4-yl)methyl)-3,8-diaza-bicyclo[3.2.1]octan-3-yl)-1-methyl-1H-indazol-3-yl)dihydropyrimidine-2,4(1H,3H)-dione]",100 to 500 nM
9,"C[C@H]1CN(CC2CCN(c3cccc(S(=O)(=O)N4CCC(Nc5ncc(Cl)cn5)CC4)c3)CC2)CCN1c1ccc2c(N3CCC(=O)NC3=O)nn(C)c2c1 [Example 117, (S)-1-(6-(4-((1-(3-((4-((5-chloropyrimidin-2-yl)amino)piperidin-1-yl)sulfonyl)phenyl)-piperidin-4-yl)methyl)-2-methylpiperazin-1-yl)-1-methyl-1H-indazol-3-yl)dihydro-pyrimidine-2,4(1H,3H)-dione]",100 to 500 nM
10,"Cn1nc(N2CCC(=O)NC2=O)c2ccc(C3CN(CC4CCN(c5cccc(S(=O)(=O)N6CCC(Nc7ncc(C(F)(F)F)cn7)CC6)c5)CC4)C3)cc21 [Example 118, 1-(1-methyl-6-(1-((1-(3-((4-((5-(trifluoro-methyl)pyrimidin-2-yl)amino)piperidin-1-yl)sulfonyl)phenyl)piperidin-4-yl)methyl)-azetidin-3-yl)-1H-indazol-3-yl)dihydropyrimidine-2,4(1H,3H)-dione]",1 to 100 nM
11,"O=C1CCC(N2Cc3cc(C4CCN(CC5CCN(c6cccc(S(=O)(=O)N7CCC(Nc8ncc(Cl)cn8)CC7)c6)CC5)CC4)c(F)cc3C2=O)C(=O)N1 (stereo not drawn) [Example 120, 3-(5-(1-((1-(3-((4-((5-chloropyrimidin-2-yl)amino)piperidin-1-yl)sulfonyl)phenyl)-piperidin-4-yl)methyl)piperidin-4-yl)-6-fluoro-1-oxoisoindolin-2-yl)piperidine-2,6-dione]",100 to 500 nM
12,"Cn1c(=O)n(C2CCC(=O)NC2=O)c2cccc(C3CCN(CC4CCN(c5cccc(S(=O)(=O)N6CCC(Nc7ncc(OC(F)F)cn7)CC6)c5)CC4)CC3)c21 (stereo not drawn) [Example 121, 3-(4-(1-((1-(3-((4-((5-(difluoromethoxy)-pyrimidin-2-yl)amino)piperidin-1-yl)sulfonyl)phenyl)piperidin-4-yl)methyl)-piperidin-4-yl)-3-methyl-2-oxo-2,3-dihydro-1H-benzo[d]imidazol-1-yl)piperidine-2,6-dione]",1 to 100 nM
13,Cn1nc(N2CCC(=O)NC2=O)c2ccc(C3CCN(Cc4ccc(-c5cccc(S(=O)(=O)N6CCC(Nc7ncc(Cl)cn7)CC6)c5)cc4)CC3)cc21 [Example 122],1 to 100 nM
14,"Cn1nc(N2CCC(=O)NC2=O)c2ccc(C3CCN(CCOc4cccc(S(=O)(=O)N5CCC(Nc6ncc(C(F)(F)F)cn6)CC5)c4)CC3)cc21 [Example 123, 1-(1-methyl-6-(1-(2-(3-((4-((5-(trifluoro-methyl)pyrimidin-2-yl)amino)piperidin-1-yl)sulfonyl)phenoxy)ethyl)piperidin-4-yl)-1H-indazol-3-yl)dihydropyrimidine-2,4(1H,3H)-dione]",1 to 100 nM
15,"Cn1nc(N2CCC(=O)NC2=O)c2ccc(C3CCN(CCOc4cccc(S(=O)(=O)N5CCC(Nc6ncc(Cl)cn6)CC5)c4)CC3)cc21 [Example 124, 1-(6-(1-(2-(3-((4-((5-chloropyrimidin-2-yl)amino)piperidin-1-yl)sulfonyl)phenoxy)-ethyl)piperidin-4-yl)-1-methyl-1H-indazol-3-yl)dihydropyrimidine-2,4(1H,3H)-dione]",1 to 100 nM
16,"Cn1nc(N2CCC(=O)NC2=O)c2ccc(N3CC4CC(C3)N4CC3CCN(c4cccc(S(=O)(=O)N5CCC(Nc6ncc(Cl)cn6)CC5)c4)CC3)cc21 [Example 125, 1-(6-(6-((1-(3-((4-((5-chloropyrimidin-2-yl)amino)piperidin-1-yl)sulfonyl)phenyl)-piperidin-4-yl)methyl)-3,6-diazabicyclo-[3.1.1]heptan-3-yl)-1-methyl-1H-indazol-3-yl)dihydropyrimidine-2,4(1H,3H)-dione]",500 to 2500 nM
17,"Cn1nc(N2CCC(=O)NC2=O)c2ccc(N3CC4CC(C3)N4CC3CCN(c4cccc(S(=O)(=O)N5CCC(Nc6ncc(C(F)(F)F)cn6)CC5)c4)CC3)cc21 [Example 126, 1-(1-methyl-6-(6-((1-(3-((4-((5-(trifluoro-methyl)pyrimidin-2-yl)amino)piperidin-1-yl)sulfonyl)phenyl)piperidin-4-yl)methyl)-3,6-diazabicyclo[3.1.1]heptan-3-yl)-1H-indazol-3-yl)dihydropyrimidine-2,4(1H,3H)-dione]",500 to 2500 nM
18,"C[C@@H]1CN(CC2CCN(c3cccc(S(=O)(=O)N4CCC(Nc5ncc(Cl)cn5)CC4)c3)CC2)C[C@H](C)N1c1ccc2c(N3CCC(=O)NC3=O)nn(C)c2c1 [Example 127, 1-(6-((2S,6R)-4-((1-(3-((4-((5-chloro-pyrimidin-2-yl)amino)piperidin-1-yl)-sulfonyl)phenyl)piperidin-4-yl)methyl)-2,6-dimethylpiperazin-1-yl)-1-methyl-1H-indazol-3-yl)dihydropyrimidine-2,4(1H,3H)-dione]",1 to 100 nM
19,"Cn1c(=O)n(C2CCC(=O)NC2=O)c2cccc(C3CCN(Cc4cccc(S(=O)(=O)N5CCC(Nc6ncc(OC(F)F)cn6)CC5)c4)CC3)c21 (stereo not drawn) [Example 128, 3-(4-(1-(3-((4-((5-(difluoromethoxy)-pyrimidin-2-yl)amino)piperidin-1-yl)sulfonyl)benzyl)piperidin-4-yl)-3-methyl-2-oxo-2,3-dihydro-1H-benzo[d]imidazol-1-yl)piperidine-2,6-dione]",1 to 100 nM
20,"Cn1nc(N2CCC(=O)NC2=O)c2ccc(C3CCN(CC4CN(c5cccc(S(=O)(=O)N6CCC(Nc7ncc(Cl)cn7)CC6)c5)C4)CC3)cc21 [Example 129, 1-(6-(1-((1-(3-((4-((5-chloropyrimidin-2-yl)amino)piperidin-1-yl)sulfonyl)phenyl)-azetidin-3-yl)methyl)piperidin-4-yl)-1-methyl-1H-indazol-3-yl)dihydropyrimidine-2,4(1H,3H)-dione]",1 to 100 nM
21,"Cn1nc(N2CCC(=O)NC2=O)c2ccc(C3CCN(Cc4cncc(S(=O)(=O)N5CCC(Nc6ncc(C(F)(F)F)cn6)CC5)c4)CC3)cc21 [Example 130, 1-(1-methyl-6-(1-((5-((4-((5-(trifluoro-methyl)pyrimidin-2-yl)amino)piperidin-1-yl)sulfonyl)pyridin-3-yl)methyl)piperidin-4-yl)-1H-indazol-3-yl)dihydropyrimidine-2,4(1H,3H)-dione]",1 to 100 nM
